Results from PMC4580469, “Expression and Purification of Human Membrane Progestin Receptor α (mPRα)” (PLoS ONE, 2015).

Molecular target: T1, human membrane progestin receptor α (hmPRα) (Homo sapiens, UniProt Q86WK9)
T1 construct: gene PAQR7; DDM-solubilized and purified over Ni-NTA, Cellufine Amino and SP-Sepharose; ~50 kDa band, theoretical 52 kDa with signal
T1 sequence (Q86WK9 1-346): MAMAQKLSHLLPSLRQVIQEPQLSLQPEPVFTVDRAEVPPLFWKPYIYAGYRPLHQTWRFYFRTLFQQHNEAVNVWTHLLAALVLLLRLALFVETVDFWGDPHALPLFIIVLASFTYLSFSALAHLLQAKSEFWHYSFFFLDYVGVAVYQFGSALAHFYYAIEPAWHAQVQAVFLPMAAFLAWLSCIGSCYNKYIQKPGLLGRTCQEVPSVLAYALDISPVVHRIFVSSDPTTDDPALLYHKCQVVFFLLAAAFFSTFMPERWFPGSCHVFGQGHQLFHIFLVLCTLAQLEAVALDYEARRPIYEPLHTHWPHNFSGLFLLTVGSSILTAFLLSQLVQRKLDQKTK
Test: radioligand saturation filter binding, Scatchard analysis

Q: How did the Kd turn out when CC(=O)[C@H]1CC[C@H]2[C@@H]3CCC4=CC(=O)CC[C@]4(C)[C@H]3CC[C@]12C [progesterone] was run?
A: Its Kd is 5.2 nM.
